# In patent publication US10202361B2, “Pyridazinones as herbicides” (E I DU PONT DE NEMOURS AND COMPANY, priority 2014, dated 2019):
# Tests used:
# Format in all cases: in vivo
# [1] = system: smartweed (ladysthumb smartweed, Polygonum persicaria); assay: Test E pre-/postemergence greenhouse herbicide test; conditions: scale 0 to 100
# Outline: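 Visual control ratings on a 0 to 100 scale (100 = complete control) were made 14 to 21 d after treatment, relative to untreated controls. Test chemicals, formulated with surfactant in a non-phytotoxic solvent, were applied to seeded silt loam soil (preemergence) and to 2 to 18 cm plants (postemergence).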
# [2] = system: nutsedge, yellow (yellow nutsedge, Cyperus esculentus); assay: as above; conditions: Preemergence, scale 0 to 100
# [3] = system: waterhemp_RES1 (ALS & Triazine resistant common waterhemp, Amaranthus rudis); assay: Test E postemergence greenhouse herbicide test; conditions: scale 0 to 100
# Procedure: At the same time, plants from these crop and weed species and also waterhemp_RES1, (ALS & Triazine resistant common waterhemp, Amaranthus rudis), and waterhemp_RES2, (ALS & HPPD resistant common waterhemp, Amaranthus rudis) were planted in pots containing Redi-Earth® planting medium (Scotts Company, 14111 Scottslawn Road, Marysville, Ohio 43041) comprising spaghnum peat moss, vermiculite, wetting agent and starter nutrients were treated with postemergence applications of test chemicals formulated in the same manner. Plants ranged in height from 2 to 18 cm for postemergence treatments (1- to 4-leaf stage). Treated plants and controls were maintained in a greenhouse for 14 to 21 d, after which time all species were compared to controls and visually evaluated. Plant response ratings, summarized in Table E, are based on a scale of 0 to 100 where 0 is no effect and 100 is complete control. A dash (-) response means no test result.
# [4] = system: Russian thistle (Salsola kali); assay: Test D pre-/postemergence controlled growth environment herbicide test; conditions: scale 0 to 100
# Outline: (§1)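 Pre-emergence treatment on silt loam soil and post-emergence treatment of 1- to 4-leaf plants (2–18 cm) in peat-based medium, compounds in a non-phytotoxic solvent with surfactant. Visual rating against untreated controls after 14–21 d in a controlled environment, scale 0 (no effect) to 100 (complete control).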
# [5] = system: oilseed rape (Brassica napus); assay: as above; conditions: scale 0 to 100
# Outline: as §1
# [6] = system: radish, wild (wild radish, Raphanus raphanistrum); assay: as above; conditions: scale 0 to 100
# Outline: as §1
# [7] = system: ryegrass, Italian (Italian ryegrass, Lolium multiflorum); assay: as above; conditions: scale 0 to 100
# Outline: as §1
# [8] = system: speedwell (bird's-eye speedwell, Veronica persica); assay: as above; conditions: scale 0 to 100
# Outline: as §1
smiles,measurement,setting,value
"COc1cc(=O)n(-c2ccc(C(F)(F)F)cc2)nc1Cc1ccnc(C(F)(F)F)c1 [Compound 16, 5-methoxy-2-[4-(trifluoromethyl)phenyl]-6-[[2-(trifluoromethyl)-4-pyridinyl]methyl]-3(2H)-pyridazinone]",Plant response rating: Smartweed,"[1]; Postemergence, 62 g ai/ha",40
same,Plant response rating: Smartweed,"[1]; Postemergence, 125 g ai/ha",70
same,Plant response rating: Smartweed,"[1]; Postemergence, 250 g ai/ha",70
same,Plant response rating: Smartweed,"[1]; Preemergence, 62 g ai/ha",98
same,Plant response rating: Smartweed,"[1]; Preemergence, 125 g ai/ha",98
same,Plant response rating: Smartweed,"[1]; Preemergence, 250 g ai/ha",100
same,"Plant response rating: Nutsedge, Yellow",[2]; 62 g ai/ha,20
same,"Plant response rating: Nutsedge, Yellow",[2]; 125 g ai/ha,20
same,"Plant response rating: Nutsedge, Yellow",[2]; 250 g ai/ha,40
same,Plant response rating: Waterhemp_RES1,[3]; 62 g ai/ha,95
same,Plant response rating: Waterhemp_RES1,[3]; 125 g ai/ha,100
same,Plant response rating: Waterhemp_RES1,[3]; 250 g ai/ha,100
"CCOc1cc(=O)n(-c2ccc(F)cc2)nc1Cc1ccnc(C(F)(F)F)c1 [Compound 25, 5-ethoxy-2-(4-fluorophenyl)-6-[[2-(trifluoromethyl)-4-pyridinyl]methyl]-3 (2H)-pyridazinone]","Plant response rating: Nutsedge, Yellow",[2]; 8 g ai/ha,0
same,"Plant response rating: Nutsedge, Yellow",[2]; 16 g ai/ha,0
same,"Plant response rating: Nutsedge, Yellow",[2]; 31 g ai/ha,0
same,"Plant response rating: Nutsedge, Yellow",[2]; 62 g ai/ha,0
same,"Plant response rating: Nutsedge, Yellow",[2]; 125 g ai/ha,0
"Cc1cc(=O)n(-c2ccc(F)cc2)nc1Oc1ccnc(C(F)(F)F)c1 [Compound 14, 2-(4-fluorophenyl)-5-methyl-6-[[2-(trifluoromethyl)-4-pyridinyl]oxy]-3 (2H)-pyridazinone]",Plant response rating,"[4]; Postemergence, 16 g ai/ha",20
same,Plant response rating,"[4]; Postemergence, 31 g ai/ha",10
same,Plant response rating,"[4]; Postemergence, 62 g ai/ha",15
same,Plant response rating,"[4]; Postemergence, 125 g ai/ha",20
same,Plant response rating,"[4]; Postemergence, 250 g ai/ha",35
same,Plant response rating,"[4]; Preemergence, 16 g ai/ha",0
same,Plant response rating,"[4]; Preemergence, 31 g ai/ha",50
same,Plant response rating,"[4]; Preemergence, 62 g ai/ha",85
same,Plant response rating,"[4]; Preemergence, 125 g ai/ha",50
same,Plant response rating,"[4]; Preemergence, 250 g ai/ha",95
same,Plant response rating,"[5]; Postemergence, 16 g ai/ha",25
same,Plant response rating,"[5]; Postemergence, 31 g ai/ha",50
same,Plant response rating,"[5]; Postemergence, 62 g ai/ha",15
same,Plant response rating,"[5]; Postemergence, 125 g ai/ha",45
same,Plant response rating,"[5]; Postemergence, 250 g ai/ha",55
same,Plant response rating,"[5]; Preemergence, 16 g ai/ha",0
same,Plant response rating,"[5]; Preemergence, 31 g ai/ha",5
same,Plant response rating,"[5]; Preemergence, 62 g ai/ha",10
same,Plant response rating,"[5]; Preemergence, 125 g ai/ha",15
same,Plant response rating,"[5]; Preemergence, 250 g ai/ha",70
same,Plant response rating,"[6]; Postemergence, 16 g ai/ha",40
same,Plant response rating,"[6]; Postemergence, 31 g ai/ha",80
same,Plant response rating,"[6]; Postemergence, 62 g ai/ha",70
same,Plant response rating,"[6]; Postemergence, 125 g ai/ha",75
same,Plant response rating,"[6]; Postemergence, 250 g ai/ha",80
same,Plant response rating,"[6]; Preemergence, 16 g ai/ha",100
same,Plant response rating,"[6]; Preemergence, 31 g ai/ha",100
same,Plant response rating,"[6]; Preemergence, 62 g ai/ha",100
same,Plant response rating,"[6]; Preemergence, 125 g ai/ha",100
same,Plant response rating,"[6]; Preemergence, 250 g ai/ha",100
same,Plant response rating,"[7]; Postemergence, 16 g ai/ha",5
same,Plant response rating,"[7]; Postemergence, 31 g ai/ha",5
same,Plant response rating,"[7]; Postemergence, 62 g ai/ha",10
same,Plant response rating,"[7]; Postemergence, 125 g ai/ha",15
same,Plant response rating,"[7]; Postemergence, 250 g ai/ha",15
same,Plant response rating,"[7]; Preemergence, 16 g ai/ha",0
same,Plant response rating,"[7]; Preemergence, 31 g ai/ha",0
same,Plant response rating,"[7]; Preemergence, 62 g ai/ha",0
same,Plant response rating,"[7]; Preemergence, 125 g ai/ha",15
same,Plant response rating,"[7]; Preemergence, 250 g ai/ha",25
same,Plant response rating,"[8]; Postemergence, 16 g ai/ha",100
same,Plant response rating,"[8]; Postemergence, 31 g ai/ha",100
same,Plant response rating,"[8]; Postemergence, 62 g ai/ha",100
same,Plant response rating,"[8]; Postemergence, 125 g ai/ha",100
same,Plant response rating,"[8]; Postemergence, 250 g ai/ha",100
same,Plant response rating,"[8]; Preemergence, 250 g ai/ha",100
"COc1cc(=O)n(-c2ccc(F)cc2)nc1Cc1ccnc(C(F)(F)F)c1 [Compound 17, 2-(4-fluorophenyl)-5-methoxy-6-[[2-(trifluoromethyl)-4-pyridinyl]methyl]-3 (2H)-pyridazinone]",Plant response rating,"[4]; Postemergence, 31 g ai/ha",30
same,Plant response rating,"[4]; Postemergence, 62 g ai/ha",30
same,Plant response rating,"[4]; Postemergence, 125 g ai/ha",100
same,Plant response rating,"[4]; Postemergence, 250 g ai/ha",100
same,Plant response rating,"[4]; Postemergence, 500 g ai/ha",100
same,Plant response rating,"[4]; Preemergence, 31 g ai/ha",0
same,Plant response rating,"[4]; Preemergence, 62 g ai/ha",100
same,Plant response rating,"[4]; Preemergence, 125 g ai/ha",100
same,Plant response rating,"[4]; Preemergence, 250 g ai/ha",100
same,Plant response rating,"[4]; Preemergence, 500 g ai/ha",100
same,Plant response rating,"[5]; Postemergence, 31 g ai/ha",50
same,Plant response rating,"[5]; Postemergence, 62 g ai/ha",55
same,Plant response rating,"[5]; Postemergence, 125 g ai/ha",75
same,Plant response rating,"[5]; Postemergence, 250 g ai/ha",85
same,Plant response rating,"[5]; Postemergence, 500 g ai/ha",100
same,Plant response rating,"[5]; Preemergence, 31 g ai/ha",25
same,Plant response rating,"[5]; Preemergence, 62 g ai/ha",25
same,Plant response rating,"[5]; Preemergence, 125 g ai/ha",40
same,Plant response rating,"[5]; Preemergence, 250 g ai/ha",90
same,Plant response rating,"[5]; Preemergence, 500 g ai/ha",90
same,Plant response rating,"[6]; Postemergence, 31 g ai/ha",30
same,Plant response rating,"[6]; Postemergence, 62 g ai/ha",35
same,Plant response rating,"[6]; Postemergence, 125 g ai/ha",60
same,Plant response rating,"[6]; Postemergence, 250 g ai/ha",100
same,Plant response rating,"[6]; Postemergence, 500 g ai/ha",100
same,Plant response rating,"[6]; Preemergence, 31 g ai/ha",30
same,Plant response rating,"[6]; Preemergence, 62 g ai/ha",100
same,Plant response rating,"[6]; Preemergence, 125 g ai/ha",100
same,Plant response rating,"[6]; Preemergence, 250 g ai/ha",100
same,Plant response rating,"[6]; Preemergence, 500 g ai/ha",100
same,Plant response rating,"[7]; Postemergence, 31 g ai/ha",10
same,Plant response rating,"[7]; Postemergence, 62 g ai/ha",10
same,Plant response rating,"[7]; Postemergence, 125 g ai/ha",10
same,Plant response rating,"[7]; Postemergence, 250 g ai/ha",15
same,Plant response rating,"[7]; Postemergence, 500 g ai/ha",35
same,Plant response rating,"[7]; Preemergence, 31 g ai/ha",0
same,Plant response rating,"[7]; Preemergence, 62 g ai/ha",0
same,Plant response rating,"[7]; Preemergence, 125 g ai/ha",0
same,Plant response rating,"[7]; Preemergence, 250 g ai/ha",50
same,Plant response rating,"[7]; Preemergence, 500 g ai/ha",80
same,Plant response rating,"[8]; Postemergence, 31 g ai/ha",10
same,Plant response rating,"[8]; Postemergence, 62 g ai/ha",100
same,Plant response rating,"[8]; Postemergence, 125 g ai/ha",100
same,Plant response rating,"[8]; Postemergence, 250 g ai/ha",100
same,Plant response rating,"[8]; Postemergence, 500 g ai/ha",100
same,Plant response rating,"[8]; Preemergence, 31 g ai/ha",100
same,Plant response rating,"[8]; Preemergence, 62 g ai/ha",100
same,Plant response rating,"[8]; Preemergence, 125 g ai/ha",100
same,Plant response rating,"[8]; Preemergence, 250 g ai/ha",100
same,Plant response rating,"[8]; Preemergence, 500 g ai/ha",100
same,Plant response rating: Smartweed,"[1]; Postemergence, 16 g ai/ha",10
same,Plant response rating: Smartweed,"[1]; Postemergence, 31 g ai/ha",15
same,Plant response rating: Smartweed,"[1]; Postemergence, 62 g ai/ha",30
same,Plant response rating: Smartweed,"[1]; Postemergence, 125 g ai/ha",40
same,Plant response rating: Smartweed,"[1]; Postemergence, 250 g ai/ha",60
same,Plant response rating: Smartweed,"[1]; Preemergence, 16 g ai/ha",0
same,Plant response rating: Smartweed,"[1]; Preemergence, 31 g ai/ha",0
same,Plant response rating: Smartweed,"[1]; Preemergence, 62 g ai/ha",0
same,Plant response rating: Smartweed,"[1]; Preemergence, 125 g ai/ha",20
same,Plant response rating: Smartweed,"[1]; Preemergence, 250 g ai/ha",75
same,"Plant response rating: Nutsedge, Yellow",[2]; 16 g ai/ha,0
same,"Plant response rating: Nutsedge, Yellow",[2]; 31 g ai/ha,0
same,"Plant response rating: Nutsedge, Yellow",[2]; 62 g ai/ha,35
same,"Plant response rating: Nutsedge, Yellow",[2]; 125 g ai/ha,50
same,"Plant response rating: Nutsedge, Yellow",[2]; 250 g ai/ha,70
same,Plant response rating: Waterhemp_RES1,[3]; 16 g ai/ha,50
same,Plant response rating: Waterhemp_RES1,[3]; 31 g ai/ha,60
same,Plant response rating: Waterhemp_RES1,[3]; 62 g ai/ha,60
same,Plant response rating: Waterhemp_RES1,[3]; 125 g ai/ha,85
same,Plant response rating: Waterhemp_RES1,[3]; 250 g ai/ha,90
